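Assay format: 96-well plates, 48-hour exposure. GI50: concentration for 50% inhibition of growth. TGI marks complete inhibition of growth.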
system: SF-268 CNS; test: inhibition of tumour cell growth, NCI panel, 48 h

SMILES	TGI [µM]	GI50 [µM]
Cc1nc(-c2nc(C)c(C(=O)NNC(=O)C[n+]3ccccc3)s2)sc1C(=O)NNC(=O)C[n+]1ccccc1	> 100	–
CN(C)C=Nc1nc(=O)n(C2CCC(CO)O2)cc1F (configuration not stated)	> 100	–
C=C1C[C@H](O)[C@H](Br)C(C)(C)[C@@]12CCC(C)=C(Cl)C2	6.25	0.396
Cc1ccc(S(=O)(=O)N2CCC2c2ccccc2)cc1 (configuration not stated)	> 100	–
CCCOc1nc(N)c2cnn(C3CCCCO3)c2n1 (configuration not stated)	> 100	–
COc1ccc(/C=C/COC(C)=O)cc1OC	> 100	–
CCOC(=O)n1cc(C2=C(c3ccc(OC)c(OC)c3)COC2=O)c2ccccc21	> 100	0.262
CC(=O)OC1(C)N=NC2(CCCCC2)O1 (configuration not stated)	> 100	–
[O-][Cl+3]([O-])([O-])[O-].[O]=[Ru]=[O].c1ccc(-c2ccccn2)nc1.c1ccc(-c2ccccn2)nc1	> 100	65.7
CN(C)c1ccc(/C=N/NC(=S)Nc2ccccc2)cc1	> 100	–
CN(C)CC1CCC/C1=N/OC(=O)c1ccccc1 (configuration not stated)	> 100	–
CCOC(=O)C1Sc2ccccc2N=C1C (configuration not stated)	> 100	–
Fc1cc(-c2nnc3n2N=C(c2ccc(Cl)cc2)CS3)c(Cl)cc1Cl	33.1	13.9
O=C(NC1C=CCC2C(=O)N(c3ccccc3)C(=O)C12)OCc1ccccc1 (configuration not stated)	> 100	–
CCC(C)SC1SCC2C(=O)N(C)C3(CC3C)C(=O)OCC(NC(=O)c3nc4ccccc4cc3O)C(=O)NC(C)C(=O)N(C)C1C(=O)N(C)C1(CC1C)C(=O)OCC(NC(=O)c1nc3ccccc3cc1O)C(=O)NC(C)C(=O)N2C (configuration not stated)	0.00516	–
Cc1[cH-]c(=O)n(-c2ccccc2)n1.[Au+].[Au].c1ccc([PH+](c2ccccc2)c2ccccc2)cc1.c1ccc([PH+](c2ccccc2)c2ccccc2)cc1	31.9	7.14
CC(=O)OCc1ccc2c(c1)C(O)NC(=O)O2 (configuration not stated)	> 100	–
CC1(C)CC(c2c[nH]c3ccccc23)=CC2=Nc3ccccc3C21O (configuration not stated)	> 100	–
CN1C(=O)C(=O)N2c3ccc(Cl)cc3C3(c4ccccc4)N=CC12O3 (configuration not stated)	25.6	–
COc1ccc(CN2C(=O)C(Cl)=C(Nc3cccc(C(F)(F)F)c3)C2=O)cc1	16.6	3.67
NCCNCCNCCN	> 100	> 100
COc1ccc(C(c2cc(OC)c(OC)c(OC)c2)n2cncn2)cc1O (configuration not stated)	> 100	0.649
N#CCCC[Si]12OCCN(CCO1)CCO2	> 100	–
O=C(/C=C/c1c(O)ccc2ccccc12)c1ccc([N+](=O)[O-])cc1	> 100	–

system: SK-OV-3 ovarian; test: inhibition of tumour cell growth, NCI panel, 48 h

SMILES	TGI [µM]	GI50 [µM]
C[C@@]1(O)CC[C@]2(C)C3CCCC3[C@H]12 (some centres not stated)	> 100	–
COc1cc(-c2nc3sccn3c2-c2ccnc(NCCNS(=O)(=O)c3ccc(F)cc3)n2)ccc1F	> 100	3.26
Cc1cc(Nc2ccc(C)c(Cl)c2)n2nc(C(F)(F)F)nc2n1	96.7	29.9
COc1ccc(Cn2c(Br)c3c(c2Br)-c2nc(N)sc2CC3)cc1	20	4.01
CC(=O)[O-].CC(=O)[O-].O=C(N/N=C/c1cc(Cl)cc(Cl)c1O)c1ccncc1.[Cu+2]	> 100	–
C#Cc1cccc(Nc2nc3cc([N+](=O)[O-])ccc3nc2Nc2ccc(O)cc2)c1	5.97	2.34
O=C(Nc1nc(=S)[nH][nH]1)C(=O)C(C(=O)c1ccc2ccccc2c1)C1OC(=O)c2ccccc21 (configuration not stated)	> 100	–
CN(C)CC(O)c1ccc(/C=C/c2ccc(Cl)cc2)cc1 (configuration not stated)	26.5	13
Cc1nnc2ccnn2c1C	> 100	> 100
CCOC(=O)C1=C(C)N(NC(=O)Nc2ccccc2)C2(N)N(NC(=O)Nc3ccccc3)C(C)=C(C(=O)OCC)C12C(=O)OCC (configuration not stated)	> 100	–
Cc1nc(-c2nc(C)c(C(=O)NNC(=O)C[n+]3ccccc3)s2)sc1C(=O)NNC(=O)C[n+]1ccccc1	> 100	–
CN(C)C=Nc1nc(=O)n(C2CCC(CO)O2)cc1F (configuration not stated)	> 100	–
C=C1C[C@H](O)[C@H](Br)C(C)(C)[C@@]12CCC(C)=C(Cl)C2	6.41	0.297
